In one data set the test system is pNL4-3 SP1-V7A. The experiment in a line: CA-SP1 accumulation assay, SP1-V7A derivative. The class given is cell-based, HIV-1. The following applies: 100 nM compound, HeLa or 293T cells. In short, it runs like this: (§1)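 HeLa or 293T cells transfected with proviral clone, maturation inhibitors present through transfection and labeling; at 24 h, [^35S]Met/Cys labeling 2-3 h. Virions pelleted by ultracentrifugation, lysed, CA and CA-SP1 resolved by SDS-PAGE and quantified by phosphorimaging.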

A further data set relates to WT pNL4-3. The data set is described as follows: CA-SP1 accumulation assay, WT NL4-3. The class given is cell-based, HIV-1. The following applies: 100 nM compound, HeLa or 293T cells. The essentials: as §1
The subject of another data set is WT pNL4-3 in MT-4 cells. The experiment in a line: Antiviral assay in MT-4 cells (RT readout), WT NL4-3. The class given is cell-based, HIV-1. Particulars: Human immunodeficiency virus 1, NL43, MT4, 96 h, read-out: Antiviral Assay IC50 (nM) NL4-3. How it is done:
(§2) Cell culture, plasmids and transfections. The MT-4 T-cell line was maintained in RPMI-1640 medium supplemented with 10% (vol/vol) fetal bovine serum (FBS), 2 mM glutamine, 100 U/mL penicillin and 100 μg/mL streptomycin at 37° C. in a humidified 5% CO2 atmosphere. HeLa and 293T cells were maintained in Dulbecco's modified Eagle's medium (DMEM) supplemented with 5% (vol/vol) FBS, 2 mM glutamine, 100 U/mL penicillin and 100 μg/mL streptomycin. Molecular clones used in this study were WT pNL4-3 and the derivative encoding a Val-to-Ala mutation at SP1 residue 7, referred to as SP1-V7A. The MT-4 T-cell line was transfected the DEAE/dextran procedure; HeLa and 293T cells were transfected with linear polyethylenimine (L-PEI) or Lipofectamine 2000 (Invitrogen) as recommended by the supplier.
(§3) Antiviral assays. To produce HIV-1 stocks, 293T cells were transfected with WT pNL4-3 or the SP1-V7A derivative and culture supernatants were collected 24 h post transfection. RT-normalized virus supernatants were used to infect MT-4 cells at room temperature for 30 min. Cells were then cultured in the presence of serial dilutions of compounds. […] The IC50s in primary peripheral blood mononuclear cells (PBMCs) were calculated with a multi-clade panel of HIV-1 isolates by Southern Research Institute (Frederick, Md.). […]

The nature of data set [1]: Cytotoxicity assay CellTiter-Blue, HeLa. The class given is cell-based. Particulars: human; HeLa cells, 4 to 8 days; mean ± SEM, three experiments. How it is done:
(§4) Cytotoxicity assays. Cytotoxicity was measured with CellTiter-Blue® Cell Viability Assay according to the manufacturer's protocol (Promega). Two cell lines, MT-4 and HeLa, were used in this assay. Cells were incubated with serial dilution of compounds at 37° C. for 4 to 8 days and subjected to CellTiter-Blue Reagent. The fluorescent signal was measured at 560 nm Ex/590 nm Em by a plate reader (TECAN, Infinite® M1000 PRO). The 50% cytotoxic concentrations (CC50s) were defined as compound concentrations at which the fluorescent signals were reduced by 50%/relative to the no-inhibitor (DMSO only) controls using GraphPad Prism 6 software and are reported in Table 1.

For data set [2], the system named is pNL4-3 SP1-V7A in MT-4 cells. The data set is described as follows: Antiviral assay in MT-4 cells (RT readout), SP1-V7A. The class given is cell-based, HIV-1. Particulars: Human immunodeficiency virus 1, MT4, 96 h, read-out: Antiviral Assay IC50 (nM) SP1 V7A. How it is done:
as §2, §3

Data set [3] can be described thus: Cytotoxicity assay CellTiter-Blue, MT-4. The class given is cell-based. The following applies: human; MT-4 cells, 4 to 8 days; mean ± SEM, three experiments. How it is done:
as §4
In general terms: Resazurin is reduced to fluorescent resorufin, in cell work by metabolically active cells.

Counter-ions that a name gives are not always drawn.

As a reminder, the IC50 is the concentration at which inhibition is half-maximal. By CC50 is commonly meant the concentration that lowers cell viability or growth by half. Low values mean harm at low concentration, high ones better tolerance by the cells. As for `C=C(C)[C@@H]1CC[C@]2(CCNC3CCN(CCOC)CC3)CC[C@]3(C)[C@H](CC[C@@H]4[C@@]5(C)CC[C@H](OC(=O)CC(C)(C)CC(=O)O)C(C)(C)[C@@H]5CC[C@]43C)[C@@H]12` [Compound 51g, (3β)-17-[2-[[1-(2-Methoxyethyl)piperadin-4-yl]amino]ethyl]-28-norlup-20(29)-en-3-ol, 3-(5-Hydrogen 3,3-Dimethylpentanedioate), Bis(trifluoroacetate) Salt], the “% CA-SP1 Accumulation 100 nM SP1 V7A” value in the data set on pNL4-3 SP1-V7A is 46.5 (3) %. In the data set on WT pNL4-3, the “% CA-SP1 Accumulation 100 nM NL4-3” value is listed as 85.0 (2) %. Besides, the IC50 is 2 ± 0.5 nM in the data set with WT pNL4-3 in MT-4 cells and 19 ± 6 nM in data set [2]. Also, the CC50 came to 551 ± 83 nM in data set [1] and 406 ± 48 nM in data set [3].

(Values after US11236122B2, “Triterpene amine derivatives” (DFH THERAPEUTICS, priority 2018, dated 2022).)
